Assay results taken from the METLIN SMRT retention time set (Domingo-Almenara et al. 2019).

Experiment: gradient 5% acetonitrile 3 min, to 50% in 2 min, to 85% in 15 min, held 3 min, 100 µL/min
Conditions: column: Zorbax Extend-C18 2.1 x 50 mm; eluents: water / acetonitrile, 0.1% formic acid
In short: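 Values are retention times taken from adduct peaks that software picked and an analyst inspected. The pure standards were run as mixtures of ~100 molecules on HPLC linked to a quadrupole time-of-flight mass spectrometer, in positive and negative ionization mode. A Zorbax Extend-C18 column (2.1 × 50 mm, 1.8 μm) was used at 100 μL/min with water and acetonitrile, each including 0.1% formic acid.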

RP-LC retention time [s] | Compound
554 | COCCc1noc([C@@H]2CN(Cc3cccc4[nH]ccc34)C[C@H]2CO)n1
627 | CCC1(O)CCOC2(CCN(C(=O)CC3CC3)CC2)C1 (centres undefined)
598 | CN1C(=O)[C@H]2CN(Cc3ccc(Cl)cc3)C[C@H]2C1=O
732 | CCCn1cc(CCNC(=O)c2ccc(F)cc2)c2cccnc21
713 | O=C(NC(Cc1ccccc1)c1nnc(N2CCCC2)o1)c1ccco1 (centres undefined)
654 | COc1ccc(C(=O)NCc2ccc3c(c2)OCO3)nn1
919 | COc1ccc(OCc2nc(CCN(C)C(=O)CC3CCCC3)no2)cc1
571 | Cn1cc(CN2CCC(C(=O)NCCN3CCN(c4ccccc4)CC3)CC2)c2ccccc21
849 | CCn1nccc1C(=O)N1CCCC1c1ccccc1Cl (centres undefined)
705 | O=C(Cn1cnc2nc(N3CCC(C(=O)NC4CC4)CC3)sc2c1=O)Nc1ccc(F)c(F)c1
786 | CCc1ccc(CNC(=O)C2CCc3nc(N(CC)CC)ncc3C2)cc1 (centres undefined)
718 | Cc1cc(C)cc(NC(=O)N2CCC(OC3CCN(S(C)(=O)=O)CC3)CC2)c1
1120 | CCOc1ccccc1N1CCN(C(=O)CSc2nccnc2Oc2ccccc2C)CC1
665 | O=C(Nc1ccc2ncnc(N3CCCCC3)c2c1)c1cncc(Br)c1
1300 | CCn1nccc1-c1cccc(-c2noc(-c3cc(Cl)ccc3F)n2)c1
779 | COc1cccc(F)c1-c1nc(C)c(C(=O)Nc2nc3ccccc3[nH]2)s1
1010 | Cc1ccc(CNC(=O)C2(C)CCCN(C(=O)Nc3ccc(Cl)cc3)C2)cc1 (centres undefined)
806 | O=C(CN1CCN(Cc2ccc(F)cc2)C1=O)NCc1cc(F)ccc1F
1130 | Fc1cc(F)cc(-c2nnc(Cc3nc(-c4ccc(Cl)cc4)no3)o2)c1
1060 | Cc1sc(C)c(S(=O)(=O)NCc2ccco2)c1-c1cc(C(F)(F)F)on1
840 | CCCCOc1ccc(C(=O)Nc2cccc(C)n2)cc1
537 | CCN1CCN(c2ncc(N3CCC(C(=O)NCCN4CCCCC4C)CC3)cn2)CC1 (centres undefined)

RP-LC retention time [s] | Compound
722 | O=C(Nc1cccc(Br)c1)C1CCN(c2cc(N3CCCC3)ncn2)CC1
603 | CCC(C(=O)NCCc1cnc[nH]1)n1c2ccccc2c2cnn(C)c(=O)c21 (centres undefined)
971 | CCn1nc(-c2csc(S(=O)(=O)N3CCC(C)CC3)c2)ccc1=O
616 | CCC(=O)N1CCC(Oc2nccnc2N(C)C)C1 (centres undefined)
1040 | CC(C)c1noc(C2(NC(=O)c3cccc(F)c3)CCCCC2)n1
816 | CCn1ncc(NC(=O)c2ccc(C)cc2)c(N2CCOCC2)c1=O
710 | CCc1nnc2ccc(NC(=O)Nc3ccc(C)cc3)cn12
678 | O=C(CCC(=O)N1CC2CCCN2c2ccccc21)N1CCN(Cc2ccccc2)CC1 (centres undefined)
727 | CCOc1cc(=O)n2c(c1C(=O)Nc1cc(OC)ccc1OC)CCCC2
794 | CCCNC(=O)CCc1nc2ccccc2n(CC(=O)NCc2ccccc2Cl)c1=O
760 | COc1ccc(Cl)cc1NC(=O)N1CCC(c2cc(N)on2)CC1
966 | Cc1ccc(-n2c(N3CCCC(C(=O)Nc4ccccc4)C3)nc3ccsc3c2=O)cc1 (centres undefined)
740 | CCCCN(C)C(=O)c1ccc(-c2nnc3ccc(NC(=O)CC)cn23)cc1
629 | CCn1cc(-c2nc(C)c(C(=O)NCc3cccnc3)s2)c2cccnc21
611 | CN(C)CCNC(=O)c1cccc(Nc2c(-c3ccc(Cl)cc3)nc3cnccn23)c1
629 | COc1ccc(CNC(=O)Cn2c(N3CCOCC3)nc(C)cc2=O)cc1
1020 | O=c1c2cc(-c3cccs3)nn2cnn1Cc1nc(-c2ccc3c(c2)OCO3)no1
735 | O=C(NC(c1ccccc1)c1nnc(N2CCOCC2)o1)C1CCCCC1 (centres undefined)
967 | Cc1ccc(C(=O)Nc2ccccc2[N+](=O)[O-])cc1
608 | CC(=O)Nc1ccc(S(=O)(=O)N2CCC(CN3CCC(C)CC3)CC2)cc1
1130 | Cc1cccc(-n2cc(C(=O)OCC(=O)OC(C)C)c3ccccc3c2=O)c1
886 | CC(C)C(=O)Nc1cccc(N2CC(C(=O)Nc3ccc(C(C)C)cc3)CC2=O)c1 (centres undefined)

RP-LC retention time [s] | Compound
780 | Cc1nccn1-c1ccc(=O)n(CCNC(=O)Cn2nc(-c3ccc(F)cc3)ccc2=O)n1
729 | COC(=O)Cn1c(C)cc(=O)n2nc(-c3ccccc3Cl)nc12
641 | CC1CCCN(CCCNC(=O)c2nc3nc(-c4ccco4)cc(C(F)(F)F)n3n2)C1 (centres undefined)
929 | Clc1ccc(C(Cn2ccnc2)OCc2c(Cl)cccc2Cl)c(Cl)c1 (centres undefined)
789 | Cc1onc(-c2ccc(F)cc2F)c1C(=O)NC(C)C
792 | Cc1ccc(-n2nnnc2CNS(=O)(=O)c2ccc(F)cc2F)cc1
578 | CCN1CCN(c2cc(C)c3cc(NC(=O)Cc4cccs4)ccc3n2)CC1
836 | Cc1cccc(CN2CCN(C3CCN(C(=O)Nc4ccc5c(c4)OCO5)CC3)C2=O)c1
610 | Cc1cc2cc3n(c2nn1)N=C(Cl)CC3
638 | CCN1CCN(c2cc(C(=O)O)c3cc(NS(=O)(=O)c4ccc(C)cc4C)ccc3n2)CC1
812 | Cc1cccc(N2C(=O)CN(Cc3ccc(F)cc3)[C@H]3CS(=O)(=O)C[C@H]32)c1
746 | CN(C)c1cc(C(=O)NC2CC2)c2cccc(Cl)c2n1
942 | Cc1nn2c(CNS(=O)(=O)c3ccc(F)c(Cl)c3)c(-c3ccccc3)nc2s1
819 | CCOCCCNC(=O)CN1C(=O)C2CCCCN2c2ccc(S(=O)(=O)N3CCCC3)cc21 (centres undefined)
728 | O=C(NCc1ccccc1Br)C1CCCN(c2cnc3nccnc3c2)C1 (centres undefined)
882 | O=C(C1CC(=O)N(c2n[nH]c3cccc(F)c23)C1)N1CCC(Cc2ccccc2)CC1 (centres undefined)
1140 | Cc1sc(C)c(S(=O)(=O)Nc2ccc(F)cc2)c1-c1cc(C(F)(F)F)on1
824 | CCn1c(=O)c(N2CCC(NC(=O)NCCc3ccccc3)CC2)nc2cccnc21
907 | CC1(C)CC(=O)c2cn(-c3ccc(Cl)cc3)c(=O)c(C(=O)O)c2C1
670 | CCNC(=O)C1CCCN(c2nc3ncn(CC(=O)Nc4ccc(F)c(F)c4)c(=O)c3s2)C1 (centres undefined)
699 | O=C(NCC1CC1)C1CCN(C(=O)c2ncn3c2COC(c2ccc(F)cc2)C3)CC1 (centres undefined)
936 | O=C(CN1c2ccc(F)cc2-c2ccccc2S1(=O)=O)Nc1ccccc1

RP-LC retention time [s] | Compound
841 | COc1cccc(-c2noc(-c3cc(N4CCN(c5ccccn5)CC4)nc4ccccc34)n2)c1OC
643 | O=C(c1c2c(nc3ccccc13)C(=O)N(C1CCCCC1)C2)N1CCN(c2ccccn2)CC1
848 | Cc1nsc2ncc(C(=O)N3CCOCC3)c(N3CCC(C(=O)Nc4cccc(Cl)c4)CC3)c12
722 | COc1cccc(CNC(=O)c2c(C(F)(F)F)nn(C)c2C)c1
993 | CC(C)c1ccc(NC(=O)C2CCN(S(=O)(=O)c3ccc4c(c3)sc(=O)n4C)CC2)cc1
621 | O=c1n(CC2CC2)nc2n1CCC(NS(=O)(=O)c1cccnc1)CC2 (centres undefined)
678 | Cc1cccc(N(C)C(=O)Cn2nc3nc(N4CCCC4)ccn3c2=O)c1
926 | COc1ccccc1-c1nc(C2CC(=O)N(c3ccc(F)cc3)C2)no1 (centres undefined)
703 | CCC(C)C(NC(=O)c1ccsc1)C(=O)Nc1nc2ccccc2[nH]1 (centres undefined)
600 | O=C(CSc1nccn1Cc1ccco1)Nc1ccccc1F
826 | COc1cccc(-n2ccc(=O)c(-c3nc(-c4cccc(OC)c4OC)no3)n2)c1
752 | COCCc1nncn1C1CCN(S(=O)(=O)c2cccc(C(F)(F)F)c2)CC1
639 | CCNc1cc(N2CCC(CCC(=O)NC(CC)CC)CC2)ncn1
782 | CCOc1ccc(C(=O)Nc2ccc(Nc3ccc(-n4cccn4)nn3)cc2)cc1OCC
722 | CCCNC(=O)c1ncn2c1C(=O)N(C1CC1)C(C)(C(=O)NCc1ccccc1Cl)C2 (centres undefined)
952 | CC1CCN(C(=O)C2=NN(CC(=O)OC(C)C)c3ccccc3S2(=O)=O)CC1
615 | O=C(CN1CCN(C(=O)Nc2ccc(Br)cc2)CC1=O)NCc1ccccn1
678 | Cc1cc2[nH]c(C(=O)Nc3cc(F)ccc3C)c(CN3CCOCC3)c2s1
1230 | Cc1ccc(NS(=O)(=O)c2c(C)nc3sc4cc(C)ccc4n3c2=O)c(C)c1
928 | Cc1ccc(CSc2nnc3c(S(=O)(=O)N4CCCCC4)cccn23)cc1
651 | O=C(Cc1nnc(-c2cccc(F)c2)o1)N1CCOCC1
845 | O=C(NCCc1ccccc1)c1nnc(-c2ccc(S(=O)(=O)N3CCOCC3)cc2)o1

Compound | RP-LC retention time [s]
CCOCCCNC(=O)N1[C@H]2CC[C@@H]1c1cnc(-c3ccc(F)cc3)nc1C2 | 800
